Source: patent US10537610B1, “Peptide for inhibition of cancer” (priority 2018, dated 2020)

Assays:
soluble JAM-A = test: ELISA of JAM-A antigen in plasma, murine 4T1 breast cancer model; type: in vivo, mouse; details: 4T1 tumor-bearing BALB/c mice and control littermates; Tβ4 15 μg/kg or TGF-β1 5 μg/kg i.p., 21 days
Protocol: All in vivo experiments were carried on female BALB/c mice aged 8 to 12 weeks purchased from Animal House of Institute of Biology, University of Bialystok (Bialystok, Poland). The mice were housed under standard conditions at the Animal House of the Medical University of Lodz (Lodz, Poland). All animal procedures and protocols were conducted in accordance with the Guide for the Care and Use of Laboratory Animals of the National Animal Care Committee and were approved by Local Ethical Committee for Animal Research in Lodz (license number 9/LB51/2017 from Jun. 2, 2017). All efforts were made to minimize animal suffering.
Murine 4T1 cells were purchased from the American Type Culture Collection (ATCC, Manassas, Va., USA). The cells were maintained in RPMI-1640 (ATCC) with 10/o fetal bovine serum (FBS) and cultured in tissue culture flasks to 80% confluence. […]
The unbound biotinylated antibody was washed away and HRP-conjugated streptavidin was added to the wells. […] Regarding the both protocols, the enzyme-substrate (HRP-TMB) reaction was terminated by the addition of a sulfuric acid solution and the color change was measured spectrophotometrically at a wavelenght of 450 nm using the Wallac 1420 VICTOR2 Multilabel Counter (PerkinElmer). The concentration of target antigen in the samples was determined by comparing the optical density of the samples to the standard curve.

JAM-A = test: Western blot of JAM-A protein in HMEC-1 cells; type: cell-based, human; details: Tβ4 200 nM or TGF-β1 10 ng/mL, 24-hours incubation
Protocol: The cells were lysed with lysis buffer (1% Triton X-100 and 0.1% SDS in PBS) supplemented with Halt Protease Inhibitor Cocktail (Thermo Scientific, Waltham, Mass., USA). For the equalization between the samples before the semi-quantitative analyses the protein content of lysates was determined with the BCA Protein Assay Kit according to the manufacturer's protocol (Thermo Scientific). Cell lysate aliquots at a protein content of 50 μg per sample were boiled with 5× concentrated loading buffer (final concentrations: 50 mM Tris-HCl, pH 6.8, 8% glycerol, 2% SDS, 5% β-mercaptoethanol, 0.002% bromophenol blue), separated under reducing conditions on 4-20% gradient SDS-PAGE gels (Bio-Rad) and electroblotted (120 min, 200 mA, 4° C.) onto polyvinylidene difluoride (PVDF) membranes (Bio-Rad). The membranes were washed with Tris-buffered saline (TBS) and blocked for 2 hours with TBS containing 5% nonfat dry milk at room temperature. Then, the membranes were incubated overnight at 4° C. with an appropriate amount of primary antibody diluted in TBS containing 0.05% Tween 20 (TBST). The following primary antibodies were used: monoclonal rabbit anti-JAM-A (Abcam, Cambridge, UK) at a dilution of 1:500 and monoclonal mouse anti-GAPDH (R&D Systems, Minneapolis, Minn., USA) at a dilution of 1:1000. The membranes were washed several times with TBST and incubated for 1 hour at room temperature with the corresponding polyclonal anti-rabbit and anti-mouse HRP-conjugated secondary antibodies (Santa Cruz Biotechnology, Dallas, Tex., USA) at a 1:5000 dilution in TBST. Following the subsequent washes with TBST the membranes were further processed for chemiluminescent detection using Westar TiC ECL Substrate (Cyanagen, Bologna, Italy) and the images were documented by ChemiDoc MP Imager (Bio-Rad).

JAM-A mRNA = test: RT-PCR of JAM-A mRNA in HMEC-1 cells; type: cell-based, human; details: Tβ4 200 nM or TGF-β1 10 ng/mL
JAM-A (CD321) = test: Flow cytometry of JAM-A (CD321) on the surface of HMEC-1 cells; type: cell-based, human; details: Tβ4 200 nM, TGF-β1 10 ng/ml or TNF-α 10 ng/mL, 24 hours
Source text: For the detection of JAM-A surface expression the cells were labeled with FITC anti-human CD321 (F11R) Mouse IgG1 Antibody (BioLegend, San Diego, Calif., USA) or with the FITC Mouse IgG1 Isotype Control Antibody (BioLegend) for the negative control. Labeled cells were washed to remove unbound antibodies, harvested with ice cold EDTA/PBS, fixed with BD CellFix (Becton Dickinson. Franklin Lakes, N.J., USA) and subsequently analyzed by FACS Canto II flow cytometer (Becton Dickinson). Upon excitation at 488 nm with an argon laser the emission of the fluorescence was recorded through selective band pass filter at 517 nm. Data were recorded with DIVA software, version 6.0 (Becton Dickinson) and subsequently analyzed using FCSalyzer software, version 0.9.14-alpha (https://sourceforge.net/projects/fcsalyzer/).

Substance	JAM-A level in plasma (soluble JAM-A)	level of JAM-A protein (JAM-A)	JAM-A expression on mRNA level (JAM-A mRNA)	JAM-A (CD321) level on the cell surface (JAM-A (CD321))
Transforming growth factor-β1 [TGF-β1]	decreased the JAM-A plasma level	evidently reduced the level of JAM-A protein	no observed changes of JAM-A expression on mRNA level	slightly decreased JAM-A level on the membrane of HMEC-1 cells
tumor necrosis factor-α [TNF-α]				triggered a minor increase of CD321 expression
